Laboratory results reported in the supplement of paper PMC10307832.

Key:
Assay in all cases: relative viability (nuclei count vs DMSO), 5 days (fraction); higher = more cells survive
R406 + Decitabine = compound: COc1cc(Nc2ncc(F)c(Nc3ccc4c(n3)NC(=O)C(C)(C)O4)n2)cc(OC)c1OC [R406] + Nc1ncn([C@H]2C[C@H](O)[C@@H](CO)O2)c(=O)n1 [Decitabine] (partner 2 µM)
Outline: (§1)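 One day after seeding in 1536-well plates, lung cancer cell lines were dosed by pin tool. Dosing was either single-drug or a fixed anchor-drug dose plus five library-drug doses (not always all listed) in √10 steps. After 5 days, nuclei were stained in one fix-and-stain step and counted on 4× images, and relative viability is the nuclei count of treated wells over that of vehicle wells, given as the median of duplicate plates.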

R406 + Phenformin = compound: COc1cc(Nc2ncc(F)c(Nc3ccc4c(n3)NC(=O)C(C)(C)O4)n2)cc(OC)c1OC [R406] + N=C(N)NC(=N)NCCc1ccccc1 [Phenformin] (partner 250 µM)
Outline: as §1

Daporinad + Navitoclax = compound: O=C(/C=C/c1cccnc1)NCCCCC1CCN(C(=O)c2ccccc2)CC1 [Daporinad] + CC1(C)CCC(c2ccc(Cl)cc2)=C(CN2CCN(c3ccc(C(=O)NS(=O)(=O)c4ccc(N[C@H](CCN5CCOCC5)CSc5ccccc5)c(S(=O)(=O)C(F)(F)F)c4)cc3)CC2)C1 [Navitoclax] (partner 0.5 µM)
Outline: as §1

R406 + Trametinib = compound: COc1cc(Nc2ncc(F)c(Nc3ccc4c(n3)NC(=O)C(C)(C)O4)n2)cc(OC)c1OC [R406] + CC(=O)Nc1cccc(-n2c(=O)n(C3CC3)c(=O)c3c(Nc4ccc(I)cc4F)n(C)c(=O)c(C)c32)c1 [Trametinib] (partner 0.02 µM)
Outline: as §1

For ABC-1, the relative viability (R406 + Decitabine; first compound 0.08 µM) was 1.02, the relative viability (R406 + Decitabine; first compound 0.253 µM) was 1.21 and the relative viability (R406 + Decitabine; first compound 0.8 µM) was 1.03. The relative viability (R406 + Decitabine; first compound 2.53 µM) was 0.793, the relative viability (R406 + Decitabine; first compound 8 µM) was 0.736 and the relative viability (R406 + Phenformin; first compound 0.08 µM) was 0.227. The relative viability (R406 + Phenformin; first compound 0.253 µM) was 0.225, the relative viability (R406 + Phenformin; first compound 0.8 µM) was 0.236 and the relative viability (R406 + Phenformin; first compound 2.53 µM) was 0.197. For the same cell line, the relative viability (R406 + Phenformin; first compound 8 µM) was 0.201.
Cell Line NCI-H1299 has a relative viability (Daporinad + Navitoclax; first compound 0.0005 µM) of 1.06, a relative viability (Daporinad + Navitoclax; first compound 0.001581 µM) of 1.07 and a relative viability (Daporinad + Navitoclax; first compound 0.005 µM) of 1.11. For the same cell line, the relative viability (Daporinad + Navitoclax; first compound 0.01581 µM) was 1.07.
EBC-1 showed a relative viability (Daporinad + Navitoclax; first compound 0.0005 µM) of 0.347, a relative viability (Daporinad + Navitoclax; first compound 0.001581 µM) of 0.4 and a relative viability (Daporinad + Navitoclax; first compound 0.005 µM) of 0.405. It also gave a relative viability (Daporinad + Navitoclax; first compound 0.01581 µM) of 0.389.
Work on NCI-H358 yielded a relative viability (R406 + Decitabine; first compound 0.08 µM) of 0.224, a relative viability (R406 + Decitabine; first compound 0.253 µM) of 0.211 and a relative viability (R406 + Decitabine; first compound 0.8 µM) of 0.222. The relative viability (R406 + Decitabine; first compound 2.53 µM) was 0.119, the relative viability (R406 + Decitabine; first compound 8 µM) was 0.125 and the relative viability (R406 + Phenformin; first compound 0.08 µM) was 0.298. The relative viability (R406 + Phenformin; first compound 0.253 µM) was 0.3, the relative viability (R406 + Phenformin; first compound 0.8 µM) was 0.309 and the relative viability (R406 + Phenformin; first compound 2.53 µM) was 0.151. For the same cell line, the relative viability (R406 + Phenformin; first compound 8 µM) was 0.115, the relative viability (R406 + Trametinib; first compound 0.08 µM) was 0.131 and the relative viability (R406 + Trametinib; first compound 0.253 µM) was 0.144. For the same cell line, the relative viability (R406 + Trametinib; first compound 0.8 µM) was 0.14, the relative viability (R406 + Trametinib; first compound 2.53 µM) was 0.0877 and the relative viability (R406 + Trametinib; first compound 8 µM) was 0.103.
NCI-H661 was tested, and the relative viability (R406 + Decitabine; first compound 0.08 µM) was 0.478, the relative viability (R406 + Decitabine; first compound 0.253 µM) was 0.531 and the relative viability (R406 + Decitabine; first compound 0.8 µM) was 0.615. For the same cell line, the relative viability (R406 + Decitabine; first compound 2.53 µM) was 0.473, the relative viability (R406 + Decitabine; first compound 8 µM) was 0.405 and the relative viability (R406 + Phenformin; first compound 0.08 µM) was 0.288. The relative viability (R406 + Phenformin; first compound 0.253 µM) was 0.263, the relative viability (R406 + Phenformin; first compound 0.8 µM) was 0.267 and the relative viability (R406 + Phenformin; first compound 2.53 µM) was 0.273. The relative viability (R406 + Phenformin; first compound 8 µM) was 0.226, the relative viability (R406 + Trametinib; first compound 0.08 µM) was 0.561 and the relative viability (R406 + Trametinib; first compound 0.253 µM) was 0.604. For the same cell line, the relative viability (R406 + Trametinib; first compound 0.8 µM) was 0.57, the relative viability (R406 + Trametinib; first compound 2.53 µM) was 0.489 and the relative viability (R406 + Trametinib; first compound 8 µM) was 0.366.
NCI-H650 was tested, and the relative viability (R406 + Decitabine; first compound 0.08 µM) was 0.316, the relative viability (R406 + Decitabine; first compound 0.253 µM) was 0.34 and the relative viability (R406 + Decitabine; first compound 0.8 µM) was 0.34. For the same cell line, the relative viability (R406 + Decitabine; first compound 2.53 µM) was 0.297, the relative viability (R406 + Decitabine; first compound 8 µM) was 0.354 and the relative viability (R406 + Phenformin; first compound 0.08 µM) was 0.416. For the same cell line, the relative viability (R406 + Phenformin; first compound 0.253 µM) was 0.498, the relative viability (R406 + Phenformin; first compound 0.8 µM) was 0.463 and the relative viability (R406 + Phenformin; first compound 2.53 µM) was 0.295. For the same cell line, the relative viability (R406 + Phenformin; first compound 8 µM) was 0.337, the relative viability (R406 + Trametinib; first compound 0.08 µM) was 0.949 and the relative viability (R406 + Trametinib; first compound 0.253 µM) was 1.06. The relative viability (R406 + Trametinib; first compound 0.8 µM) was 1, the relative viability (R406 + Trametinib; first compound 2.53 µM) was 0.818 and the relative viability (R406 + Trametinib; first compound 8 µM) was 0.819.
In the case of NCI-H1648, the relative viability (R406 + Decitabine; first compound 0.08 µM) is reported as 0.53, the relative viability (R406 + Decitabine; first compound 0.253 µM) is reported as 0.527 and the relative viability (R406 + Decitabine; first compound 0.8 µM) is reported as 0.483. The relative viability (R406 + Decitabine; first compound 2.53 µM) was 0.515, the relative viability (R406 + Decitabine; first compound 8 µM) was 0.36 and the relative viability (R406 + Trametinib; first compound 0.08 µM) was 0.564. It also gave a relative viability (R406 + Trametinib; first compound 0.253 µM) of 0.432, a relative viability (R406 + Trametinib; first compound 0.8 µM) of 0.557 and a relative viability (R406 + Trametinib; first compound 2.53 µM) of 0.463. The relative viability (R406 + Trametinib; first compound 8 µM) was 0.4.
With NCI-H1623 the relative viability (R406 + Phenformin; first compound 0.08 µM) was 0.577, the relative viability (R406 + Phenformin; first compound 0.253 µM) was 0.624 and the relative viability (R406 + Phenformin; first compound 0.8 µM) was 0.611. The relative viability (R406 + Phenformin; first compound 2.53 µM) was 0.585 and the relative viability (R406 + Phenformin; first compound 8 µM) was 0.554.
In the case of A549, the relative viability (R406 + Decitabine; first compound 0.08 µM) is reported as 0.22, the relative viability (R406 + Decitabine; first compound 0.253 µM) is reported as 0.261 and the relative viability (R406 + Decitabine; first compound 0.8 µM) is reported as 0.257. The relative viability (R406 + Decitabine; first compound 2.53 µM) was 0.258, the relative viability (R406 + Decitabine; first compound 8 µM) was 0.311 and the relative viability (R406 + Phenformin; first compound 0.08 µM) was 0.142. It also gave a relative viability (R406 + Phenformin; first compound 0.253 µM) of 0.21, a relative viability (R406 + Phenformin; first compound 0.8 µM) of 0.122 and a relative viability (R406 + Phenformin; first compound 2.53 µM) of 0.155. The relative viability (R406 + Phenformin; first compound 8 µM) was 0.0767, the relative viability (Daporinad + Navitoclax; first compound 0.0005 µM) was 1.3 and the relative viability (Daporinad + Navitoclax; first compound 0.001581 µM) was 1.21. For the same cell line, the relative viability (Daporinad + Navitoclax; first compound 0.005 µM) was 1.12 and the relative viability (Daporinad + Navitoclax; first compound 0.01581 µM) was 0.814.
In the case of NCI-H1563, the relative viability (R406 + Phenformin; first compound 0.08 µM) is reported as 0.662, the relative viability (R406 + Phenformin; first compound 0.253 µM) is reported as 0.664 and the relative viability (R406 + Phenformin; first compound 0.8 µM) is reported as 0.682. The relative viability (R406 + Phenformin; first compound 2.53 µM) was 0.511 and the relative viability (R406 + Phenformin; first compound 8 µM) was 0.445.
IA-LM was tested, and the relative viability (Daporinad + Navitoclax; first compound 0.0005 µM) was 0.733, the relative viability (Daporinad + Navitoclax; first compound 0.001581 µM) was 0.809 and the relative viability (Daporinad + Navitoclax; first compound 0.005 µM) was 0.772. The relative viability (Daporinad + Navitoclax; first compound 0.01581 µM) was 0.599.
With NCI-H1703 the relative viability (Daporinad + Navitoclax; first compound 0.0005 µM) was 1.16, the relative viability (Daporinad + Navitoclax; first compound 0.001581 µM) was 1.2 and the relative viability (Daporinad + Navitoclax; first compound 0.005 µM) was 0.816. For the same cell line, the relative viability (Daporinad + Navitoclax; first compound 0.01581 µM) was 0.335.
With LCLC-103H the relative viability (R406 + Decitabine; first compound 0.08 µM) was 0.707, the relative viability (R406 + Decitabine; first compound 0.253 µM) was 0.712 and the relative viability (R406 + Decitabine; first compound 0.8 µM) was 0.744. The relative viability (R406 + Decitabine; first compound 2.53 µM) was 0.746, the relative viability (R406 + Decitabine; first compound 8 µM) was 0.707 and the relative viability (R406 + Phenformin; first compound 0.08 µM) was 0.327. It also gave a relative viability (R406 + Phenformin; first compound 0.253 µM) of 0.345, a relative viability (R406 + Phenformin; first compound 0.8 µM) of 0.419 and a relative viability (R406 + Phenformin; first compound 2.53 µM) of 0.317. For the same cell line, the relative viability (R406 + Phenformin; first compound 8 µM) was 0.314, the relative viability (R406 + Trametinib; first compound 0.08 µM) was 0.66 and the relative viability (R406 + Trametinib; first compound 0.253 µM) was 0.675. The relative viability (R406 + Trametinib; first compound 0.8 µM) was 0.672, the relative viability (R406 + Trametinib; first compound 2.53 µM) was 0.691 and the relative viability (R406 + Trametinib; first compound 8 µM) was 0.604.
In the case of SW 900, the relative viability (R406 + Decitabine; first compound 0.08 µM) is reported as 0.486, the relative viability (R406 + Decitabine; first compound 0.253 µM) is reported as 0.469 and the relative viability (R406 + Decitabine; first compound 0.8 µM) is reported as 0.446. It also gave a relative viability (R406 + Decitabine; first compound 2.53 µM) of 0.555, a relative viability (R406 + Decitabine; first compound 8 µM) of 0.173 and a relative viability (R406 + Phenformin; first compound 0.08 µM) of 0.53. For the same cell line, the relative viability (R406 + Phenformin; first compound 0.253 µM) was 0.662, the relative viability (R406 + Phenformin; first compound 0.8 µM) was 0.792 and the relative viability (R406 + Phenformin; first compound 2.53 µM) was 0.189. The relative viability (R406 + Phenformin; first compound 8 µM) was 0.215, the relative viability (R406 + Trametinib; first compound 0.08 µM) was 0.958 and the relative viability (R406 + Trametinib; first compound 0.253 µM) was 0.805. For the same cell line, the relative viability (R406 + Trametinib; first compound 0.8 µM) was 0.906, the relative viability (R406 + Trametinib; first compound 2.53 µM) was 0.764 and the relative viability (R406 + Trametinib; first compound 8 µM) was 0.118.
